Experimental findings from ChEMBL document CHEMBL5500339, “4-Hydroxy-2-pyridone derivatives with antitumor activity produced by mangrove endophytic fungus Talaromyces sp. CY-3” (Eur J Med Chem, 2024) are described below.

Activity calls are given as the source filed them. The calls are words filed in the database; no cut-off is given here.

Test [1] concerns A549. Kind of test: Cytotoxicity against human A549 cells assessed as reduction in cell viability incubated for 48 hrs by MTT assay. Type of test: functional, cell-based. To be noted: A549, 48 h. (In general: Formazan colour is commonly taken as a measure of viable cells.)
Test [2] deals with A549. Kind of test: Induction of cell cycle arrest in human A549 cells assessed as downregulation of Rb phosphorylation at Ser807/811 residue at 10 uM incubated for 24 hrs by Western blotting analysis. Type of test: functional, cell-based. For orientation: A western blot detects proteins with antibodies after separation by electrophoresis.
Test [3] deals with A549. Kind of test: Induction of cell cycle arrest in human A549 cells assessed as downregulation of total Rb protein level at 20 uM incubated for 24 hrs by Western blotting analysis. Type of test: functional, cell-based.
Test [4] concerns A549. Kind of test: Inhibition of colony formation in human A549 cells at 10 uM incubated for 7 days by crystal violet staining analysis. Type of test: functional, cell-based. The following applies: time 7.0 day.
The subject of test [5] is NCI-H1703. Kind of test: Induction of cell cycle arrest in human NCI-H1703 cells assessed as accumulation of cells at S phase at 5 uM incubated for 24 hrs by flow cytometric analysis (reference value: 28.06 %). Type of test: functional. (In general: A flow cytometer gives signals particle by particle.)
For test [6], the system named is A549. Kind of test: Inhibition of colony formation in human A549 cells at 20 uM incubated for 7 days by crystal violet staining analysis. Type of test: functional, cell-based. To be noted: time 7.0 day.
The test system of test [7] is A549. Kind of test: Antiproliferative activity against human A549 cells assessed as inhibition of cell growth incubated for 18 hrs by Edu incorporation based fluorescence microscopic analysis. Type of test: functional.
Another test relates to MC-38. Kind of test: Cytotoxicity against mouse MC38 cells assessed as reduction in cell viability incubated for 48 hrs by MTT assay. Type of test: functional, cell-based. The following applies: MC-38, 48 h.
Test [8] concerns NCI-H1703. Kind of test: Induction of cell cycle arrest in human NCI-H1703 cells assessed as accumulation of cells at G2/M phase at 5 uM incubated for 24 hrs by flow cytometric analysis (reference value: 29.88 %). Type of test: functional.
The test system of a further test is MDA-MB-435. Kind of test: Cytotoxicity against human MDA-MB-435 cells assessed as reduction in cell viability incubated for 48 hrs by MTT assay. To be noted: MDA-MB-435, 48 h. Type of test: functional, cell-based.
The subject of a further test is CT26. Kind of test: Cytotoxicity against mouse CT26 cells assessed as reduction in cell viability incubated for 48 hrs by MTT assay. Type of test: functional, cell-based. To be noted: CT26, 48 h.
In the next test the test system is SNB-19. Kind of test: Cytotoxicity against human SNB-19 cells assessed as reduction in cell viability incubated for 48 hrs by MTT assay. Type of test: functional, cell-based. To be noted: SNB-19, 48 h.
Test [9] concerns A549. Kind of test: Induction of cell cycle arrest in human A549 cells assessed as accumulation of cells at G1/G0 phase at 10 uM incubated for 24 hrs by flow cytometric analysis (reference value: 51.49 %). Type of test: functional.
The test system of test [10] is NCI-H1703. Kind of test: Induction of cell cycle arrest in human NCI-H1703 cells assessed as downregulation of CDK4 protein expression incubated for 24 hrs by Western blotting analysis. Type of test: functional, cell-based.

As for `C/C=C/[C@@H]1[C@H]2C[C@@H](C)CC[C@@H]2C(C)=C[C@H]1C(=O)c1c(O)c(-c2ccc(O)cc2)c[nH]c1=O` [ILICICOLIN H], the IC50 (in general, the concentration that inhibits the measured activity by half) in the test on A549 [1] came out at 7.01 µM; with MC-38, 19.6 µM; in the test with MDA-MB-435, 6.34 µM; with CT26 it was 19.5 µM; in the test on SNB-19, 14.6 µM. Further, in the test on A549 [2], the outcome was Active. In addition, the outcome with A549 [3] was inactive. Besides, the inhibition result in the test with A549 [4] and in the test on A549 [6] was “Active” each time. The Activity was 23.26% in the test on NCI-H1703 [5]; “Dose-Dependent Effect” in the test with A549 [7]; 26.61% in the test with NCI-H1703 [8]; 64.26% in the test on A549 [9]; “Dose-Dependent Effect” with NCI-H1703 [10].
